How the values were obtained:
[1] = test system: soft rot of Chinese cabbage; assay: Test for controlling soft rot of Chinese cabbage, Example 3 / Comparative Example 3 (field, cultivar Muso); type: in vivo; conditions: 500 g ai/10 a, 150 L/10 a sprayed onto planting holes before planting, 51 days after start
Description: (§1) Frequency of the disease=[sigma(number of plants with the onset of the disease at each severity level*index of the onset of the disease)/(plants examined*4)]*100
(§2) Disease control value=[1-(frequency of the disease in the treated lot/frequency of the disease in the non-treated lot)]*100
(§3) • 0: No onset • 1: Onset in some of outer leaves (shippable) • 2: Onset in outer leaves and some of head leaves (by removing damaged parts, the resulting cabbage can be shipped as small cabbage but is ranked as grade B). • 3: Most of head leaves are inflicted with the onset of the disease or with severer damages (not shippable) • 4: Whole cabbage plant is inflicted with the onset of the disease and is dead.
442 g/l kresoxim-methyl (STROBY FLOWABLE [trade name], manufactured by BASF) was adjusted to 500 g ai/10a (0.5 g/m^2, 1131 ml Product/10a) as the amount of the active ingredient and to 150 L/10a as the volume of diluent water. […]
(§4) 51 days after the start of the tests, all the plants in each lot were examined about the severity level of the disease to assess the frequency of the disease and the disease control value. The frequency of the disease and the disease control value were determined in the same manner as described above. Because soft rot is a disease with damages hardly controlled, herein, even a chemical at the level C determined by the tests of the effects can practically be used.

[2] = test system: bacteria causing the soft rot (Erwinia carotovora); assay: Inhibition test of growth of bacteria causing soft rot, Reference Test Example 6; type: cell-based; conditions: for formed colonies (growth state), grade: PSA medium, 27 degrees Celsius, 3 days
Description: (§5) An inhibition test of the growth of bacteria causing the soft rot was done, when a control agent was directly applied to the bacteria causing the soft rot. A given volume of each pesticide of fludioxonil (Seibia FL [trade name] manufactured by Syngenta Japan K.K.), iminoctadine albesilate salt (Bellkute WP [trade name], manufactured by Nippon Soda Co., Ltd.), iprodione (Rovral WP [trade name] manufactured by Bayer Crop Science Co., Ltd.), and streptomycin (Mycin Wettable powder [trade name] manufactured by Hokko Chemical Industry Co., Ltd.) was added together with a suspension of the bacteria causing the soft rot (Erwinia carotovora) to a preliminarily dissolved PSA culture medium (55 degrees Celsius) for subsequent thorough agitation, which was then spread on a plate for culturing at 27 degrees Celsius for 3 days, to examine the growth state. Subsequently, the formed colonies were examined according to the following three grades. • +: at the same level as the level of non-treated lot.
(§6) Plus or minus: apparently less than the colonies of the non-treated lot. • −: almost no colonies observed.

[3] = test system: bacteria causing the soft rot (Erwinia carotovora); assay: Inhibition test of growth of bacteria causing soft rot, Reference Test Example 1; type: cell-based; conditions: for formed colonies (growth state), grade: PSA medium, 25 degrees Celsius, 4 days
Protocol: as §5, with “cyazofamid (RANMAN 400SC” for “fludioxonil (Seibia FL”, “Ishihara Sangyo Kaisha, Ltd.), amisulbrom (LEIMAY FLOWABLE” for “Syngenta Japan K.K.), iminoctadine albesilate salt (Bellkute WP”, “Nissan Chemical Industries, Ltd.)” for “Nippon Soda Co., Ltd.), iprodione (Rovral WP [trade name] manufactured by Bayer Crop Science Co., Ltd.),”, “25” for “27”, “4” for “3”
as §6

[4] = test system: soft rot of Chinese cabbage; assay: Test for controlling soft rot of Chinese cabbage, Example 2 / Comparative Example 2 (field, cultivar Harebutai 65); type: in vivo; conditions: 500 g ai/10 a, 150 L/10 a sprayed onto planting holes before planting, 64 days after start
Description: as §1, §2, §3
200 g/l Azoxystrobin (Amistar 20 FLOWABLE [trade name], manufactured by Syngenta Japan K.K.) was adjusted to 500 g ai/10a (0.5 g/m^2, 2500 ml Product/10a) as the amount of the active ingredient and to 150 L/10a as the volume of diluent water.
30% w/w triflumizol (TRIFUMIN WP [trade name], manufactured by Nippon Soda Co., Ltd.) was adjusted to 500 g ai/10a (0.5 g/m^2, 1667 g Product/10a) as the amount of the active ingredient and to 150 L/10a as the volume of diluent water.
100 g/1 cyazofamid (RANMAN PLOWABLE [trade name], manufactured by Ishihara Sangyo Kaisha, Ltd.) was adjusted to 500 g ai/10a (0.5 g/m^2, 5000 ml Product/10a) as the amount of the active ingredient and to 150 L/10a as the volume of diluent water.
50% w/w penthiopyrad (GAIA WG [trade name], manufactured by Mitsui Chemicals Agro, Inc.) was adjusted to 500 g ai/10a (0.5 g/m^2, 1000 g Product/10a) as the amount of the active ingredient and to 150 L/10a as the volume of diluent water.
50 g/l flusulfamide (SCABLOCK SC [trade name], manufactured by Mitsui Chemicals Agro, Inc.) was adjusted to 500 g ai/10a (0.5 g/m^2, 10000 ml Product/10a) as the amount of the active ingredient and to 150 L/10a as the volume of diluent water.
400 g/1 chlorothalonil (Daconil 1000 [the trade name], manufactured by Sumitomo Chemical, Limited) was adjusted to 1000 g ai/10a (1.0 g/m^2, 2500 ml Product/10a) as the amount of the active ingredient and to 150 L/10a as the volume of diluent water.
(§7) After spreading an agricultural mulch-sheet and opening planting holes (diameter of about 5 cm) for permanent planting through the mulch-sheet, the spray solutions prepared as described above were sprayed onto the planting holes such that the amount of treated active ingredient of chlorothalonil was 1.0 g/m^2 (150 L per 10a) and the amount of each of the remaining spray solutions was 0.5 g/m^2 (150 L per 10a), followed by air-drying; subsequently, seedlings of Chinese cabbage (cultivar Harebutai 65) grown for 4 weeks in cell mold trays (128 holes/nursery box) were planted such that 19 seedlings were planted in each test lot having an area of 2.4 m^2 with two replications.
(§8) Preparation was performed by diluting streptomycin (Mycin 20 wettable powder solution [under the trade name] manufactured by Hokko Chemical Industry Co., Ltd.) with water to 1/1000.
(§9) In a field spread with the agricultural mulch-sheet, Chinese cabbage seedlings (cultivar: Harebutai 65) grown by the same method as in Example 2 were planted by the same method as in Example 2, for spraying the spray solution of streptomycin prepared above in (1) (at each spray volume of 300 L/10a) twice (27 days and 48 days after the planting of the seedlings) on the stems and leaves with a sprayer.
as §4, with “64” for “51”, “In the same manner as described above, the” for “The”, “determined. Additionally,” for “determined in the same manner as described above. Because”, “so” for “herein,”

[5] = test system: soft rot of Chinese cabbage; assay: Test for controlling soft rot of Chinese cabbage, Example 1 / Comparative Example 1 (field, cultivar Muso); type: in vivo; conditions: 250 g ai/10 a, 150 L/10 a sprayed onto planting holes before planting, 54 days after start
Protocol: 200 g/l Azoxystrobin (Amistar 20 FLOWABLE [trade name], manufactured by Syngenta Japan K.K.) was adjusted to 250 g ai/10a (0.25 g/m^2, 1250 ml Product/10a) as the amount of the active ingredient and to 150 L/10a as the volume of diluent water.
100 g/l Cyazofamid (RANMAN FLOWABLE [trade name], manufactured by Ishihara Sangyo Kaisha, Ltd.) was adjusted to 250 g ai/10a (0.25 g/m^2, 2500 ml Product/10a) as the amount of the active ingredient and to 150 L/10a as the volume of diluent water.
177 g/l Amisulbrom (LEIMAY FLOWABLE [trade name], manufactured by Nissan Chemical Industries, Ltd.) was adjusted individually to 250 g ai/10a (0.25 g/m^2, 1412 ml Product/10a) as the amount of the active ingredient and to 150 L/10a as the volume of diluent water.
as §7, with “about 9” for “about 5”, “of each spray solution” for “of chlorothalonil”, “was 0.25” for “was 1.0 g/m^2 (150 L per 10a) and the amount of each of the remaining spray solutions was 0.5”, “cabbage (cultivar: Muso)” for “cabbage (cultivar Harebutai 65)”, “that 30” for “that 19”, “of 6” for “of 2.4”
as §8
as §9, with “Muso)” for “Harebutai 65)”, “1” for “2”, “1,” for “2,”, “three times (13 days, 20” for “twice (27”, “27” for “48”, “leaves.” for “leaves with a sprayer.”
54 days after the start of the tests, all the plants in each lot were examined about the severity level of the disease; according to the following equations, the ratio of the plants with the onset of the disease, the frequency of the disease, and the disease control value were calculated to determine and rank the effects at A to D levels. Because soft rot is a disease with damages hardly controlled, herein, even a chemical at the level C determined by the tests of the effects can practically be used.
Ratio of the plants with the onset of the disease=(Number of plants with the onset of the disease/number of plants examined)*100
Frequency of the disease=[sigma(number of plants with the onset of the disease at each severity level*index of the onset of the disease)/(plants examined*4)]*100 […]

[6] = active ingredient concentration of 1,000 ppm

Compound | Determination of effect [1] | formed colonies (growth state), grade ([2]; 100 ppm active ingredient) | formed colonies (growth state), grade ([2]; 500 ppm active ingredient) | formed colonies (growth state), grade ([2]; 1000 ppm active ingredient) | inhibition of growth of Erwinia carotovora (in words) [2, 6] | formed colonies (growth state), grade ([3]; 100 ppm active ingredient) | formed colonies (growth state), grade ([3]; 500 ppm active ingredient) | formed colonies (growth state), grade ([3]; 1000 ppm active ingredient) | inhibition of growth of Erwinia carotovora (in words) [3, 6] | Determination of effect [4] | Determination of effect [5]
1,1′-iminodi(octamethylene)diguanidinium=tris(alkylbenzenesulfonate) [Iminoctadine albesilate salt] | B (B: Effective (41 to 60 disease control value)) | +, + | +, + | +, + | never inhibited the growth | – | – | – | – | – | –
Cc1ccc(-c2c(Cl)nc(C#N)n2S(=O)(=O)N(C)C)cc1 [Cyazofamid, 4-chloro-2-cyano-N,N-dimethyl-5-p-tolylimidazole-1-sulfoneamide] | – | – | – | – | – | +, + | +, + | +, + | never inhibited the growth | C (C: Effective at low level (21 to 40 disease control value)) | D (D: Poorly effective (20 or smaller disease control value))

Reference: patent US20130123287A1, “CONTROL AGENT FOR SOFT ROT AND CONTROL METHOD FOR THE SAME” (ISHIHARA SANGYO KAISHA, LTD., priority 2010, published 2013)
